Patent US20260285849A1, “METHYLOPHIOPOGONONE A DERIVATIVE, AND PREPARATION AND USE THEREOF” (INSTITUTE OF MATERIA MEDICA, CHINESE ACADEMY OF MEDICAL …, priority 2022, published 2026)
Like-named read-outs stand apart in the source and are kept apart here.

Assays:
[1] = test system: mice with hypertensive heart disease induced by angiotensin II (AngII); assay type: in vivo; parameters: unit not given here
Experimental: After male C57BL/6 mice were acclimated to the environment, they were randomly divided into 10 groups, namely the blank control group, the AngII model group, the AngII+telmisartan 10 mg/kg positive control group, the AngII+spironolactone 20 mg/kg positive control group, the AngII+Formula I (0.1, 0.5, 2 mg/kg) groups, and the AngII+Formula II (0.1, 0.5, 2 mg/kg) groups. The mice in the drug administration groups were intragastrically administered the corresponding doses of Formula I and Formula II compounds once a day at the same time. The mice in the positive control groups were intragastrically administered the corresponding doses of telmisartan and spironolactone once a day. The mice in the blank control group and the model group were given the same amount of solvent (0.5% CMC-Na solution). The administration volume was 10 mL/kg, and the administration was continuous for 14 days. From the 1st to the 13th day of drug administration, AngII modeling was carried out. The mice in the blank control group were subcutaneously injected with normal saline, and the mice in the other groups were subcutaneously injected with 1.44 mg/kg of AngII (modeling was carried out 2 h after drug administration), for a total of 13 times. […] Three mice were randomly selected from each group. The mice were placed in a fixator to expose the tail. The fixator was placed on a heating pad to maintain the normal body temperature of the mice. The root of the tail was passed through a pressurized tail cuff and fixed. Inflation and pressurization were started, and a measuring instrument was used to measure the systolic blood pressure (SBP). The blood pressure index of each animal was continuously measured 5 times, and the average value was taken.

[2] = test system: mice with hypertensive heart disease induced by angiotensin II (AngII); test: AngII-induced hypertensive heart disease mouse model: serum cTn-T and CK-MB (ELISA); assay type: in vivo
Experimental: (§1) After male C57BL/6 mice were acclimated to the environment, they were randomly divided into 10 groups, namely the blank control group, the AngII model group, the AngII+telmisartan 10 mg/kg positive control group, the AngII+spironolactone 20 mg/kg positive control group, the AngII+Formula I (0.1, 0.5, 2 mg/kg) groups, and the AngII+Formula II (0.1, 0.5, 2 mg/kg) groups. The mice in the drug administration groups were intragastrically administered the corresponding doses of Formula I and Formula II compounds once a day at the same time. The mice in the positive control groups were intragastrically administered the corresponding doses of telmisartan and spironolactone once a day. The mice in the blank control group and the model group were given the same amount of solvent (0.5% CMC-Na solution). The administration volume was 10 mL/kg, and the administration was continuous for 14 days. From the 1st to the 13th day of drug administration, AngII modeling was carried out. The mice in the blank control group were subcutaneously injected with normal saline, and the mice in the other groups were subcutaneously injected with 1.44 mg/kg of AngII (modeling was carried out 2 h after drug administration), for a total of 13 times. Detection of serum biomarkers of myocardial injury: After the experiment, the animals were sacrificed by enucleation to obtain blood. The blood was left to stand at room temperature for 2 hours, and then centrifuged at 3500 rpm for 20 minutes to separate the serum. The contents of serum cardiac troponin cTn-T and myocardial enzyme CK-MB were determined according to the instructions of the ELISA kit.

[3] = test system: mice with hypertensive heart disease induced by angiotensin II (AngII); test: AngII-induced hypertensive heart disease mouse model: serum aldosterone (ALD) (ELISA); assay type: in vivo
Experimental: as §1, with “aldosterone (ALD) level:” for “biomarkers of myocardial injury:”, “content” for “contents”, “ALD was” for “cardiac troponin cTn-T and myocardial enzyme CK-MB were”

Rat H9C2 cardiomyocytes [4] = test: cells; conditions: H9c2, 24 h, read-out: Cell survival rate
Experimental: Rat H9C2 cardiomyocytes in the logarithmic growth phase were seeded into 96-well plates at a density of 7×10^4 cells/mL, with 100 μL per well. […] After 24 hours of culture, the drug groups were treated with 800 μM ISO and the corresponding concentrations of drugs. The ISO model group received 800 μM ISO and an equal volume of DMSO, and the blank control group received an equal volume of DMSO. The cells were then cultured for another 24 hours. After removing the supernatant, 100 μL MTT solution (0.5 mg/mL) was added to each well and incubated in the cell culture incubator for 4 hours. After removing the supernatant, 150 μL DMSO was added to each well, mixed by shaking for 10 minutes, and the absorbance was measured at 570 nm using a microplate reader to calculate cell viability. Cell viability (%)=[(As−Ab)/(Ac−Ab)]×100%. As: Experimental well (medium with cells, MTT, ISO); Ac: Control well (medium with cells, MTT, without ISO); Ab: Blank well (medium without cells, MTT, without ISO).

Rat H9C2 cardiomyocytes [5] = test: cells; conditions: H9c2, 24 h, read-out: Cell viability
Experimental: Rat H9C2 cardiomyocytes in the logarithmic growth phase were seeded at a density of 7×10^4 cells/mL into 96-well plates, with 100 μL per well. […] After 24 hours of culture, the drug treatment groups were respectively added with 50 μM Ang II and the corresponding concentration of the drug. The Ang II model group was added with 50 μM Ang II and an equal volume of DMSO, and the blank control group was added with an equal volume of DMSO. Then, the cells were cultured for another 24 hours. After removing the supernatant, 100 μL of MTT solution (0.5 mg/mL) was added to each well, and the plates were placed in an incubator for 4 hours. After removing the supernatant again, 150 μL of DMSO was added to each well, and the mixture was shaken and mixed evenly for 10 minutes. The absorbance was measured at 570 nm using a microplate reader to calculate the cell viability.
Cell viability (%)=[(As−Ab)/(Ac−Ab)]×100% • As: Experimental well (culture medium containing cells, MTT, Ang II); • Ac: Control well (culture medium containing cells, MTT, without Ang II); • Ab: Blank well (culture medium without cells, MTT, without Ang II).

[6] = 0 d (before administration), 0.1 mg/kg group
[7] = 0 d (before administration), 0.5 mg/kg group
[8] = 0 d (before administration), 2 mg/kg group
[9] = 7 d, 0.1 mg/kg intragastric once a day, AngII 1.44 mg/kg s.c.
[10] = 7 d, 0.5 mg/kg intragastric once a day, AngII 1.44 mg/kg s.c.
[11] = 7 d, 2 mg/kg intragastric once a day, AngII 1.44 mg/kg s.c.
[12] = 14 d, 0.1 mg/kg intragastric once a day, AngII 1.44 mg/kg s.c.
[13] = 14 d, 0.5 mg/kg intragastric once a day, AngII 1.44 mg/kg s.c.
[14] = 14 d, 2 mg/kg intragastric once a day, AngII 1.44 mg/kg s.c.
[15] = 0.1 mg/kg intragastric once a day 14 days
[16] = 0.5 mg/kg intragastric once a day 14 days
[17] = 2 mg/kg intragastric once a day 14 days
[18] = 20 mg/kg intragastric once a day 14 days
[19] = 10 mg/kg intragastric once a day 14 days

| Structure (SMILES) | SBP [1, 6] | SBP [1, 7] | SBP [1, 8] | SBP [1, 9] | SBP [1, 10] | SBP [1, 11] | SBP [1, 12] | SBP [1, 13] | SBP [1, 14] | CK-MB [2, 15] [ng/mL] | cTn-T [2, 15] [ng/L] | CK-MB [2, 16] [ng/mL] | cTn-T [2, 16] [ng/L] | CK-MB [2, 17] [ng/mL] | cTn-T [2, 17] [ng/L] | ALD [3, 15] [pg/mL] | ALD [3, 16] [pg/mL] | ALD [3, 17] [pg/mL] | viability at 0.1 µM (Rat H9C2 cardiomyocytes [4]) [%] | viability at 0.3 µM (Rat H9C2 cardiomyocytes [4]) [%] | also measured |
| --- | --- | --- | --- | --- | --- | --- | --- | --- | --- | --- | --- | --- | --- | --- | --- | --- | --- | --- | --- | --- | --- |
| Cc1c(O)cc(O)c2c(=O)c(Cc3ccc4c(c3)OCO4)coc12 [Formula II, 3-(benzo[d][1,3]dioxol-5-ylmethyl)-5,7-dihydroxy-8-methyl-4H-chromen-4-one] | 100.30 ± 7.37 | 102.43 ± 8.41 | 101.27 ± 12.13 | 105.73 ± 6.00 | 106.07 ± 1.22 | 110.93 ± 5.78 | 110.13 ± 3.51 | 113.93 ± 3.51 | 108.27 ± 7.29 | 15.36 ± 2.41 | 153.56 ± 13.05 | 14.07 ± 1.33 | 145.15 ± 15.79 | 13.39 ± 2.57 | 136.64 ± 18.24 | 186.44 ± 21.59 | 177.28 ± 21.57 | 185.89 ± 12.61 | 79.8 | 79.8 | viability at 1 µM (Rat H9C2 cardiomyocytes [4]): 74.8%; viability at 3 µM (Rat H9C2 cardiomyocytes [4]): 79.6%; viability at 5 µM (Rat H9C2 cardiomyocytes [4]): 64.9%; viability at 10 µM (Rat H9C2 cardiomyocytes [4]): 66.7%; viability at 0.1 µM (Rat H9C2 cardiomyocytes [5]): 81.4%; viability at 0.3 µM (Rat H9C2 cardiomyocytes [5]): 73.5%; viability at 1 µM (Rat H9C2 cardiomyocytes [5]): 77.6%; viability at 3 µM (Rat H9C2 cardiomyocytes [5]): 73%; viability at 10 µM (Rat H9C2 cardiomyocytes [5]): 75.6% |
| O=c1c(Cc2ccc3c(c2)OCO3)coc2cc(O)cc(O)c12 [Formula I] | 102.13 ± 4.30 | 109.70 ± 5.67 | 104.93 ± 9.21 | 121.33 ± 3.19 | 109.80 ± 4.50 | 107.73 ± 6.53 | 107.60 ± 9.81 | 105.13 ± 7.10 | 109.20 ± 5.19 | 15.73 ± 1.79 | 167.25 ± 24.56 | 15.17 ± 1.63 | 165.79 ± 23.78 | 15.72 ± 1.89 | 164.52 ± 19.68 | 206.80 ± 16.10 | 192.69 ± 14.38 | 199.41 ± 31.27 | 81.3 | 76.8 | viability at 1 µM (Rat H9C2 cardiomyocytes [4]): 74%; viability at 3 µM (Rat H9C2 cardiomyocytes [4]): 76.6%; viability at 5 µM (Rat H9C2 cardiomyocytes [4]): 66.7%; viability at 10 µM (Rat H9C2 cardiomyocytes [4]): 69.4%; viability at 0.1 µM (Rat H9C2 cardiomyocytes [5]): 75.1%; viability at 0.3 µM (Rat H9C2 cardiomyocytes [5]): 72.5%; viability at 1 µM (Rat H9C2 cardiomyocytes [5]): 73.5%; viability at 3 µM (Rat H9C2 cardiomyocytes [5]): 75.9%; viability at 10 µM (Rat H9C2 cardiomyocytes [5]): 76.4% |
| CC(=O)S[C@@H]1CC2=CC(=O)CC[C@]2(C)[C@H]2CC[C@@]3(C)[C@@H](CC[C@@]34CCC(=O)O4)[C@H]12 [Spironolactone, reference compound] |  |  |  |  |  |  |  |  |  |  |  |  |  |  |  |  |  |  |  |  | SBP ([1]; 0 d (before administration), 20 mg/kg group): 106.13 ± 0.81; SBP ([1]; 7 d, 20 mg/kg intragastric once a day, AngII 1.44 mg/kg s.c.): 109.73 ± 6.81; SBP ([1]; 14 d, 20 mg/kg intragastric once a day, AngII 1.44 mg/kg s.c.): 109.70 ± 4.20; CK-MB [2, 18]: 18.86 ± 1.40 ^ ng/mL; cTn-T [2, 18]: 169.17 ± 21.95 ng/L; ALD [3, 18]: 209.03 ± 25.11 pg/mL |
| CCCc1nc2c(C)cc(-c3nc4ccccc4n3C)cc2n1Cc1ccc(-c2ccccc2C(=O)O)cc1 [Telmisartan, reference compound] |  |  |  |  |  |  |  |  |  |  |  |  |  |  |  |  |  |  |  |  | SBP ([1]; 0 d (before administration), 10 mg/kg group): 104.13 ± 3.56; SBP ([1]; 7 d, 10 mg/kg intragastric once a day, AngII 1.44 mg/kg s.c.): 91.20 ± 6.35^###&; SBP ([1]; 14 d, 10 mg/kg intragastric once a day, AngII 1.44 mg/kg s.c.): 100.47 ± 7.68; CK-MB [2, 19]: 12.72 ± 1.09 ng/mL; cTn-T [2, 19]: 134.07 ± 17.50 ng/L; ALD [3, 19]: 162.74 ± 7.38 pg/mL |
